Holding throughout (type): biochemical
Experiment [1] deals with T1, IRAP (insulin-regulated aminopeptidase) (Homo sapiens, UniProt Q9UIQ6).
T1 construct: gene LNPEP; extracellular (luminal) aminopeptidase domain; Rhodopsin 1D4 tag (given as N-terminal); secreted from stably transfected HEK 293S GnTI(-) cells; PDB ids are the docking structures
Kind of experiment: HPLC vasopressin trimming, dose-response.

Experiment [2] concerns the target T2, ERAP1 (Homo sapiens, UniProt Q9NZ08).
T2 construct: recombinant; Hi5 insect cells, baculovirus; Ni-NTA purified
Put plainly: fluorogenic Leu-AMC hydrolysis, dose-response.

Experiment [3] deals with T1, IRAP (insulin-regulated aminopeptidase). Put plainly: fluorogenic Leu-AMC hydrolysis, dose-response.
The target in the next experiment is T3, ERAP2 (Homo sapiens, UniProt Q6P179).
T3 construct: recombinant; Hi5 insect cells, baculovirus; Ni-NTA purified
T3 sequence (Q6P179 whole entry): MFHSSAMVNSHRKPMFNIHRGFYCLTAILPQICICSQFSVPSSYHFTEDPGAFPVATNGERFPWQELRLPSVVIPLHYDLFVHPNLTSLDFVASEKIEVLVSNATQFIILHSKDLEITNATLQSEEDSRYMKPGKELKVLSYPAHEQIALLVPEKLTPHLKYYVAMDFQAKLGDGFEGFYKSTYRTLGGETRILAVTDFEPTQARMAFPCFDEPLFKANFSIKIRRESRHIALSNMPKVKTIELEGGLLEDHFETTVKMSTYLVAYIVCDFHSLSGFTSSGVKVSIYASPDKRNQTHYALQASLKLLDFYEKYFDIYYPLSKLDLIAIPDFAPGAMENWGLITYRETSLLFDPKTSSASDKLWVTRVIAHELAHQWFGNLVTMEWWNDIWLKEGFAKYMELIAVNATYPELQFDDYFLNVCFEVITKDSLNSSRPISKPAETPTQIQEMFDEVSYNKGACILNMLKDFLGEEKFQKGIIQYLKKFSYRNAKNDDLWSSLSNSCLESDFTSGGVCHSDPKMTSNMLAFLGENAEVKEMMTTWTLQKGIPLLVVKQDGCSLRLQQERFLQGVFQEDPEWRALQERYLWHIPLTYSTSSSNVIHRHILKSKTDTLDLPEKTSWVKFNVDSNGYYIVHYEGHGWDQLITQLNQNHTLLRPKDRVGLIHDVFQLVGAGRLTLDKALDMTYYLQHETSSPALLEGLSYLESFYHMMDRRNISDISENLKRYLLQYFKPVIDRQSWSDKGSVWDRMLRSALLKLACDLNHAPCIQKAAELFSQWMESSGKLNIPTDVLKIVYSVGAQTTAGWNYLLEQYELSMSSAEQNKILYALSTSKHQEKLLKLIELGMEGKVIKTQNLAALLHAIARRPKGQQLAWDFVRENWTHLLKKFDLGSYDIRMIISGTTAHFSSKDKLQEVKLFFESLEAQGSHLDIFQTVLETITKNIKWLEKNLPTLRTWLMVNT
Kind of experiment: fluorogenic Arg-AMC hydrolysis, dose-response.

Experiment [4] concerns the target T2, ERAP1. Put plainly: fluorogenic Leu-AMC hydrolysis, dose-response. This is another data set of the same source.
In experiment [5] the target is T1, IRAP (insulin-regulated aminopeptidase). Kind of experiment: Michaelis-Menten, fluorescence. The settings on record: pH 7.0, 1 nM enzyme, no inhibitor.

The term IC50 denotes the concentration that gives 50% inhibition. For orientation: EC50 means the midpoint of the concentration-response curve. A low value points to a more potent agent.

T2 sequence (Q9NZ08 whole entry): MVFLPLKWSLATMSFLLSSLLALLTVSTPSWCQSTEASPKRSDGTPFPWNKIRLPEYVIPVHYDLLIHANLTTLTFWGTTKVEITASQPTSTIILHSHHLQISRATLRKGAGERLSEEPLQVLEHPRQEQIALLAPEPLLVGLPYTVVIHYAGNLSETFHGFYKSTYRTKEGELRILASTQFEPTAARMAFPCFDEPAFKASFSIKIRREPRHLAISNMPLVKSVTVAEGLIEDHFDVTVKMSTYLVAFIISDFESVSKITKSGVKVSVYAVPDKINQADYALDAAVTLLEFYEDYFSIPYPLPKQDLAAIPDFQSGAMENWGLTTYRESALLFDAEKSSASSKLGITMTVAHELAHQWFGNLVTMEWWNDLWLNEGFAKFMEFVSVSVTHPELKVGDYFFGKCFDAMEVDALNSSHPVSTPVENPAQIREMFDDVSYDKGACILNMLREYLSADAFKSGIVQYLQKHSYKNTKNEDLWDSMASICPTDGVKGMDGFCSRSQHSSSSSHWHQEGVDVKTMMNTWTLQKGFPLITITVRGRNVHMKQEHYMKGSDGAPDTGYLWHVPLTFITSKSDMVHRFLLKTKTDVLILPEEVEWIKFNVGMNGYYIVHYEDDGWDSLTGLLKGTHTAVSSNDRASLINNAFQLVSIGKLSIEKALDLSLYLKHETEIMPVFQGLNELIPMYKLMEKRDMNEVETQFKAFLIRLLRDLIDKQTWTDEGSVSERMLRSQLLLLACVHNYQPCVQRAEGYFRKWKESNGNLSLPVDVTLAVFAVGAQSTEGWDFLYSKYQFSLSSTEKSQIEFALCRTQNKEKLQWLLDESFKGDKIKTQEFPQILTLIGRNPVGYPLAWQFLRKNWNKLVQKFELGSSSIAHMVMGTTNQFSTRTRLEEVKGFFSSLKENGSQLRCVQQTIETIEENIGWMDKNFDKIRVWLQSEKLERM
T1 sequence (Q9UIQ6 132-1025 limits assumed): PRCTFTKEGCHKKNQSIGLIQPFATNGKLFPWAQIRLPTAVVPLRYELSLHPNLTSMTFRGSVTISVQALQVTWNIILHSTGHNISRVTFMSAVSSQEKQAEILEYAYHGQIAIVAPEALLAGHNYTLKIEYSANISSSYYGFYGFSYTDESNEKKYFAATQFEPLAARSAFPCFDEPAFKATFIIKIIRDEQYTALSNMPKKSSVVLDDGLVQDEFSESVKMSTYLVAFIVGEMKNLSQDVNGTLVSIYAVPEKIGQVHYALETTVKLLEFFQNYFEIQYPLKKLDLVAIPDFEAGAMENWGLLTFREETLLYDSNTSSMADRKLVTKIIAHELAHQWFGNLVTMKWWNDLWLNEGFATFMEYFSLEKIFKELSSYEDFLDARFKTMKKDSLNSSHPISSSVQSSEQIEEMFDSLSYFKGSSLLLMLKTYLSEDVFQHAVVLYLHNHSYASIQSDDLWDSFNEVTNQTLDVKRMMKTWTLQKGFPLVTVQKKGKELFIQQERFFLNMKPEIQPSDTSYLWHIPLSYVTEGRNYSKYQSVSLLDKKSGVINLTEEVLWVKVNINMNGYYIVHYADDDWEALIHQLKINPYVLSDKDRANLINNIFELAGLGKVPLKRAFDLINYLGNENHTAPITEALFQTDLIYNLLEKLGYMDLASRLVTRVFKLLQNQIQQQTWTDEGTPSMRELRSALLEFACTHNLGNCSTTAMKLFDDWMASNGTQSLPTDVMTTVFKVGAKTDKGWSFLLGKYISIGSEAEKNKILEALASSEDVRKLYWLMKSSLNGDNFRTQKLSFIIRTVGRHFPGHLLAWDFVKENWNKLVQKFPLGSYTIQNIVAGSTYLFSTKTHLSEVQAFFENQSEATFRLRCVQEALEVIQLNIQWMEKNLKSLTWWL

`O=C(O)C1(CF)CCN(Cc2cc3c(Br)cc(F)cc3[nH]2)C1` (racemic) [compound 2] registered a concentration for half-maximal inhibition (IC50) in experiment [1] of 280 µM.
In the case of `O=C(O)c1cc(CN2CCCCC2CCCc2ccccc2)[nH]n1` (racemic) [compound 8], the IC50 against ERAP1 [2] is > 300 µM; in experiment [3], 30 µM; against ERAP2 it was > 10000 µM.
On to `NCc1cc(C(=O)NC(Cc2ccccc2Cl)c2ccccc2)n[nH]1` (racemic) [compound 11], for which the half-maximal effective concentration (EC50) at ERAP1 [4] was ~450 µM. The concentration for half-maximal inhibition (IC50) in experiment [3] is 125 µM; against ERAP2, 1300 µM.
Consider `Cc1ccc(CC(C)(CO)NC(=O)c2cc(-c3c[nH]c4ccccc34)[nH]n2)cc1` (racemic) [compound 17], for which the figures for the half-inhibitory concentration (IC50) (on ERAP1 [2]; in experiment [3]; on ERAP2) were > 300 µM, 208 µM and 3600 µM, respectively.
For the molecule `Cc1cc(=O)oc2cc(NC(=O)[C@@H](N)CC(C)C)ccc12` [Leu-AMC], the KM result in experiment [5] is given as “Michaelis–Menten analysis of (A, B) Leu-AMC substrate digestion by IRAP”.

These data come from article PMC12059914, “Discovery of Novel Allosteric Inhibitor Hits for Insulin-Regulated Aminopeptidase Provides Insights on Enzymatic Mechanism” (ACS Omega, 2025).
